This is an account of results in patent US8486950B2, “Janus kinase inhibitor compounds and methods” (F. Hoffmann-La Roche AG, priority 2009, dated 2013).

The structures appear in SMILES notation.

The first experiment deals with T1, TYK2 kinase domain (Homo sapiens, UniProt P29597).
T1 construct: made in house; host or cells: SF9 insect cells (recombinant baculovirus)
T1 sequence (P29597 873-1187): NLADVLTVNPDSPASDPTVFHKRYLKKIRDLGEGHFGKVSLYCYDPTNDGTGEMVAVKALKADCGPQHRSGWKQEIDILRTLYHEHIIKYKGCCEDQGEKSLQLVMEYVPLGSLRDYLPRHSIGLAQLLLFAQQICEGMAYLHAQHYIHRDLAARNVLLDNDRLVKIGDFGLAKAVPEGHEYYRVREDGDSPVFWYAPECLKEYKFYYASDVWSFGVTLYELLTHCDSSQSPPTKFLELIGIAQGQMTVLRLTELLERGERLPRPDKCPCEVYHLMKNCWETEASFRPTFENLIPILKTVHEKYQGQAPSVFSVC
The experiment is described as follows: TYK2 inhibition assay (Caliper LabChip, isolated kinase domain). Type of experiment: biochemical.
Conditions: not given
An excerpt:
The catalytically active kinase domain of human JAK1, JAK2, JAK3 or TYK2 was purified from extracts of SF9 insect cells infected with a recombinant baculovirus expression vector encoding the human JAK1, JAK2, JAK3 or TYK2 kinase domains (JAK1 amino acid residues N852-D1154 according to the numbering of GenBank sequence accession number P23458, JAK2 amino acid residues D812-G1132 according to the numbering of GenBank sequence accession number NP_004963.1; JAK3 amino acid residues S783-S1124 according to the numbering of GenBank sequence accession number P52333, and TYK2 amino acid residues N873-C1187 according to the numbering of GenBank sequence accession number P29597). The activity of the JAK1, JAK2, JAK3 or TYK2 kinase domains can be measured by a number of direct and indirect methods, including quantification of phosphorylation of peptide substrates derived from the human JAK3 protein (Saltzman et al., Biochem. Biophys. Res. Commun. 246:627-633 (2004)). The activity of the JAK1, JAK2, JAK3 or TYK2 kinase domains was measured in vitro by monitoring phosphorylation of JAK3 derived peptides using the Caliper LabChip technology (see Examples).
The activity of the isolated JAK1, JAK2 or TYK2 kinase domain was measured by monitoring phosphorylation of a peptide derived from JAK3 (SEQ ID NO:1 […] fluorescently labeled on the N-terminus with 5-carboxyfluorescein using the Caliper LabChip technology (Caliper Life Sciences, Hopkinton, Mass.). […] Reactions were incubated at 22° C. in 384-well polypropylene microtiter plates for 30 minutes and then stopped by addition of 25 uL of an EDTA containing solution (100 mM Hepes pH 7.2, 0.015% Brij-35, 150 mM EDTA), resulting in a final EDTA concentration of 50 mM. After termination of the kinase reaction, the proportion of phosphorylated product was determined as a fraction of total peptide substrate using the Caliper LabChip 3000 according to the manufacturer's specifications. Ki values were then determined using the Morrison tight binding model. Morrison, J. F., Biochim. Biophys. Acta. 185:269-296 (1969); William, J. W. and Morrison, J. F., Meth. Enzymol., 63:437-467 (1979).
Consider `N#Cc1cc(Cl)c(C(=O)Nc2ccnc(NC(=O)C3CC3)c2)c(Cl)c1` [Example 256, 2,6-dichloro-4-cyano-N-(2-(cyclopropanecarboxamido)pyridin-4-yl)benzamide], for which the Ki (in general, a dissociation constant, usually derived from enzyme kinetics or from competition with a known ligand) is about 0.002 µM.
Still for that read-out and setting: then `O=C(Nc1ccnc(NC(=O)[C@H]2C[C@@H]2c2nnn[nH]2)c1)c1c(Cl)cccc1Cl` (relative stereo) [Example 320, N-(2-(trans-2-(1H-tetrazol-5-yl)cyclopropanecarboxamido)pyridin-4-yl)-2,6-dichlorobenzamide], with about 0.052 µM.

Still in this experiment, the particulars now being: isolated TYK2 kinase domain, 25 uM ATP; values given as 'about'; read-out: Ki values for TYK2 inhibition.
With `CNc1nc(Nc2cc(NC(=O)c3c(Cl)cccc3Cl)ccn2)cc(C(C)C)n1` [Example 551, 2,6-dichloro-N-(2-(6-isopropyl-2-(methylamino)pyrimidin-4-ylamino)pyridin-4-yl)benzamide], the Ki is about 0.0033 µM.
Still for that read-out and setting: in the case of `O=C(Nc1ccnc(NC(=O)C2CC2)c1)c1c(Cl)cc(CO)cc1Cl` [Example 178, 2,6-dichloro-N-(2-(cyclopropanecarboxamido)-pyridin-4-yl)-4-(hydroxymethyl)benzamide] it was about 0.005 µM; in that of `O=C(Nc1ccncc1)c1c(Cl)cc(-c2cc[nH]n2)cc1Cl` [Example 11, 2,6-dichloro-4-(1H-pyrazol-3-yl)-N-(pyridin-4-yl)benzamide], about 0.65 µM; in that of `NC[C@H]1C[C@H]1C(=O)Nc1cc(NC(=O)c2c(F)cccc2Cl)ccn1` (relative stereo) [Example 608, cis-N-(2-(2-(aminomethyl)cyclopropanecarboxamido)pyridin-4-yl)-2-chloro-6-fluorobenzamide], about 0.14 µM.
Regarding `O=C(Nc1cc(NC(=O)C2CC2)ncc1F)c1c(Cl)cccc1Cl` (single isomer, unassigned) [Example 264, 2,6-dichloro-N-(5-fluoro-2-cyclopropanecarboxamidopyridin-4-yl)benzamide], the Ki is about 0.01 µM.
On the same count and under the same terms, in the case of `Cc1cc(Nc2cc(NC(=O)c3c(Cl)cc(CO)cc3Cl)ccn2)nc(NCCO)n1` [Example 416, 2,6-dichloro-N-(2-(2-(2-hydroxyethylamino)-6-methylpyrimidin-4-ylamino)pyridin-4-yl)-4-(hydroxymethyl)-benzamide] it was about 0.0006 µM; in that of `N#Cc1cc(Cl)c(C(=O)Nc2ccnc(N)c2)c(Cl)c1` [Example 281, N-(2-aminopyridin-4-yl)-2,6-dichloro-4-cyanobenzamide], about 0.093 µM; in that of `Cc1cc(Nc2cc(NC(=O)c3c(Cl)cccc3Cl)ccn2)nc(N)n1` [Example 495, N-(2-(2-amino-6-methylpyrimidin-4-ylamino)pyridin-4-yl)-2,6-dichlorobenzamide], about 0.0015 µM.
Still for that read-out and setting: then `O=C(Nc1cc(NC(=O)c2c(Cl)cccc2Cl)ccn1)Oc1ccccc1` [Example 350, phenyl 4-(2,6-dichlorobenzamido)pyridin-2-ylcarbamate], with about 0.062 µM; and `O=C(Nc1ccnc(NC2CC2)n1)c1c(Cl)cccc1Cl` [Example 156, 2,6-dichloro-N-(2-(cyclopropylamino)-pyrimidin-4-yl)benzamide], with about 0.99 µM; and `O=C(Nc1ccncc1F)c1c(Cl)cccc1Cl` [Example 272, 2,6-dichloro-N-(3-fluoropyridin-4-yl)benzamide], with about 0.19 µM.
Turning to `O=C(Nc1ccncn1)c1c(Cl)cccc1Cl` [Example 3, 2,6-dichloro-N-(pyrimidin-4-yl)benzamide], the Ki is about 0.72 µM.
Regarding `O=C(Nc1ccncc1)c1c(Cl)cc(CO)cc1Cl` [Example 76, 2,6-dichloro-4-(hydroxymethyl)-N-(pyridin-4-yl)benzamide], the Ki was about 0.22 µM.
On the same count and under the same terms, in the case of `Cc1cc(Nc2cc(NC(=O)c3c(Cl)cc(Cl)cc3Cl)ccn2)nc(N2CCOCC2)n1` [Example 380, 2,4,6-trichloro-N-(2-(6-methyl-2-morpholinopyrimidin-4-ylamino)pyridin-4-yl)benzamide] it was about 0.0035 µM; in that of `Nc1cc(NC(=O)c2c(Cl)cccc2Cl)ccn1` [Example 2, N-(2-aminopyridin-4-yl)-2,6-dichlorobenzamide], about 0.85 µM.
Same read-out and setting: then `Cc1cc(Nc2cc(NC(=O)c3c(Cl)cc(C#N)cc3Cl)ccn2)nc(N(CCO)CCO)n1` [Example 415, N-(2-(2-(bis(2-hydroxyethyl)amino)-6-methylpyrimidin-4-ylamino)pyridin-4-yl)-2,6-dichloro-4-cyanobenzamide], with about 0.0005 µM; and `CN(C)C(=O)c1cc(Cl)c(C(=O)Nc2ccnc(NC(=O)C3CC3)c2)c(Cl)c1` [Example 260, 2,6-dichloro-N^1-(2-(cyclopropanecarboxamido)pyridin-4-yl)-N^4,N^4-dimethylterephthalamide], with about 0.027 µM.
On the same count and under the same terms, then `O=C(Nc1ccnc(NC(=O)[C@H]2C[C@H]2F)c1)c1c(Cl)cc(CO)cc1Cl` (relative stereo) [Example 315, 2,6-dichloro-N-(2-(cis-2-fluorocyclopropanecarboxamido)pyridin-4-yl)-4-(hydroxymethyl)benzamide], with about 0.008 µM; and `COCCOc1ccc(Nc2cc(NC(=O)c3c(Cl)cccc3Cl)ccn2)cc1C(F)(F)F` [Example 115, 2,6-dichloro-N-(2-(4-(2-methoxyethoxy)-3-(trifluoromethyl)phenyl-amino)pyridin-4-yl)benzamide], with about 0.57 µM; and `O=C(Nc1ccncc1)c1ccccc1Br` [Example 271, 2-bromo-N-(pyridine-4-yl)benzamide], with about 0.81 µM.
For the molecule `CCc1cc(Nc2cc(NC(=O)c3c(Cl)cccc3Cl)ccn2)nc(N(CCO)CCO)n1` [Example 579, N-(2-(2-(bis(2-hydroxyethyl)amino)-6-ethylpyrimidin-4-ylamino)pyridin-4-yl)-2,6-dichlorobenzamide], the Ki was about 0.0006 µM.
As to `CCc1cc(Nc2cc(NC(=O)c3c(Cl)cccc3Cl)ccn2)nc(N2CCNCC2)n1` [Example 534, 2,6-dichloro-N-(2-(6-ethyl-2-(piperazin-1-yl)pyrimidin-4-ylamino)pyridin-4-yl)benzamide], the inhibition constant Ki was about 0.0018 µM.
Turning to `CCc1cc(Nc2cc(NC(=O)c3c(Cl)cccc3Cl)ccn2)nc(N2CCC(F)(F)CC2)n1` [Example 572, 2,6-dichloro-N-(2-(2-(4,4-difluoropiperidin-1-yl)-6-ethylpyrimidin-4-ylamino)pyridin-4-yl)benzamide], the Ki was about 0.08 µM.
Still for that read-out and setting: in the case of `O=C(Nc1ccnc(NC(=O)C2CC2)c1F)c1c(Cl)cccc1Cl` (single isomer, unassigned) [Example 263, 2,6-dichloro-N-(3-fluoro-2-cyclopropanecarboxamidopyridin-4-yl)benzamide] it was about 0.024 µM; in that of `Cc1cc(Nc2cc(NC(=O)c3c(Cl)cc(CNCC4CC4)cc3Cl)ccn2)nc(N2CCOCC2)n1` [Example 406, 2,6-dichloro-4-((cyclopropylmethylamino)-methyl)-N-(2-(6-methyl-2-morpholinopyrimidin-4-ylamino)pyridin-4-yl)benzamide], about 0.0036 µM; in that of `O=C(Nc1ccc(NC(=O)C2CC2)nc1)c1c(Cl)cccc1Cl` [2,6-dichloro-N-(6-(cyclopropanecarboxamido)-pyridin-3-yl)benzamide, reference compound], over 3.5 µM.
On the same count and under the same terms, in the case of `Cc1ccc(Cl)c(C(=O)Nc2ccncc2)c1F` [Example 17, 6-chloro-2-fluoro-3-methyl-N-(pyridin-4-yl)benzamide] it was about 0.36 µM.
`Cc1cc(Nc2nccc(NC(=O)c3c(Cl)cc(C#N)cc3Cl)c2[N+](=O)[O-])nc(C)n1` [Example 238, 2,6-dichloro-4-cyano-N-(2-(2,6-dimethylpyrimidin-4-ylamino)-3-nitropyridin-4-yl)benzamide]: the Ki is about 0.45 µM.
Regarding `O=C(Nc1ccnc(Nc2nccs2)c1)c1c(Cl)cccc1Cl` [Example 4, 2,6-dichloro-N-(2-(thiazol-2-ylamino)pyridin-4-yl)benzamide], the inhibitory constant (Ki) was about 0.38 µM.

The experiment is the same for the next values; noted with them: measured at 10 μM concentration of compound.
`O=C(Nc1ccc(NC(=O)C2CC2)nc1)c1c(Cl)cccc1Cl` [2,6-dichloro-N-(6-(cyclopropanecarboxamido)-pyridin-3-yl)benzamide, reference compound]: the inhibition – broadly, the relative decrease from the control value, in per cent – at 10 µM is about 5.7%.
